These results are taken from patent publication US7705030B2, “Amino-5-(5-membered)hetero-arylimidazolone compounds and the use thereof for β-secretase modulation” (Wyeth LLC, priority 2005, dated 2010).

One data set concerns the target human BACE1 (Homo sapiens, UniProt P56817). Put plainly: Fluorescent kinetic assay: Evaluation of BACE-1 Binding Affinity of Test Compounds. In kind it is biochemical. The following applies: 10 nM enzyme, 25 μM substrate WABC-6, 50 mM Na-Acetate pH 4.5, room temperature. The method, boiled down: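 Run with 10 nM human BACE1 and 25 μM WABC-6 FRET peptide in 50 mM Na-acetate pH 4.5, 0.05% CHAPS, 25% PBS at room temperature. Fluorescence (ex 320/em 420 nm) was read every 40 sec for 30 min, and initial cleavage rates were taken from linear slopes across ≥10 inhibitor concentrations.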

Structures are written as SMILES.

human BACE1, sequence (P56817 46-501): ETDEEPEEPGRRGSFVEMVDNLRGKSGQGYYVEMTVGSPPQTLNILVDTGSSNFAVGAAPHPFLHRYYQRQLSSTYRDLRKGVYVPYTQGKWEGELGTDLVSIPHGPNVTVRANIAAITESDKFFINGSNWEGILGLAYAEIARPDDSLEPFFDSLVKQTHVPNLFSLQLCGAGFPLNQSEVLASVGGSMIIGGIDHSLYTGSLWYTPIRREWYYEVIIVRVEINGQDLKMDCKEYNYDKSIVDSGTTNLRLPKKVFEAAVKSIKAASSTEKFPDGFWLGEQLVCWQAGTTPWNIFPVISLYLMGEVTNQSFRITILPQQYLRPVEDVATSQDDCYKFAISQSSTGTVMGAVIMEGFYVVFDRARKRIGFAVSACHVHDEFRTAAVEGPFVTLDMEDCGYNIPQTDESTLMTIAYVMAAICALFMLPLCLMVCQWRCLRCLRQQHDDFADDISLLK

For orientation: IC50 means the concentration at which inhibition is half-maximal. A word on the melting point: it is the temperature, or range, at which the solid turns liquid. Regarding `Cc1sccc1C1(c2cccc(-c3cncnc3)c2)N=C(N)N(C)C1=O` (centres unmarked) [Example 27, 2-Amino-5-(2-methylthien-3-yl)-3-methyl-5-(3-pyrimidin-5-ylphenyl)-3,5-dihydro-4H-imidazol-4-one], the melting point lay within 154 to 159 °C. In addition, the IC50 on human BACE1 was in the range of 110 to 1000 nM.

Turning to `CN1C(=O)C(c2cccc(-c3cncnc3)c2)(c2cnn(CC(F)(F)F)c2)N=C1N` (centres unmarked) [Example 89], the melting point was in the range of 223 to 225 °C. Further, the IC50 on human BACE1 was 110 to 1000 nM.

Consider `CCC(CC)Cn1cc(C2(c3cccc(-c4cccnc4F)c3)N=C(N)N(C)C2=O)cn1` (centres unmarked) [Example 99], for which the melting point is 75 to 80 °C. At human BACE1, this molecule had an IC50 of 10 to 100 nM.

In the case of `CN1C(=O)C(c2cccc(-c3cc(F)cnc3Cl)c2)(c2cc(C#N)n(C)c2)N=C1N` (centres unmarked) [Example 227], the melting point was more than 225 °C. Also, at human BACE1, the IC50 was 110 to 1000 nM.

In turn, `CCC(=O)c1cc(C2(c3cccc(-c4cc(F)cc(F)c4)c3)N=C(N)N(C)C2=O)cn1CC(F)(F)F` (centres unmarked) [Example 203] returned a melting point of 104 to 106 °C. The same molecule yielded an IC50 on human BACE1 of 10 to 100 nM.

`CCCCn1cc(C2(c3cccc(-c4cccnc4F)c3)N=C(N)N(C)C2=O)cn1` (centres unmarked) [Example 4, 2-Amino-5-(1-butyl-1H-pyrazol-4-yl)-5-[3-(2-fluoropyridin-3-VI)phenyl]-3-methyl-3,5-dihydro-4H-imidazol-4-one]: the melting point is 88 to 92 °C. At human BACE1, this molecule returned an IC50 of 10 to 100 nM.

Turning to `CN1C(=O)C(c2ccc(F)c(-c3cncnc3)c2)(c2cnn(CC(F)(F)F)c2)N=C1N` (centres unmarked) [Example 8, 2-Amino-5-(4-fluoro-3-pyrimidin-5-ylphenyl)-3-methyl-5-[1-(2,2,2-trifluoroethyl)-1H-pyrazol-4-yl]-3,5-dihydro-4H-imidazol-4-one], the melting point is 115 to 117 °C. This molecule also registered an IC50 at human BACE1 of 110 to 1000 nM.

For the molecule `CCC(=O)c1cc(C2(c3cccc(OCCC(C)(C)C)c3)N=C(N)N(C)C2=O)cn1CC` (centres unmarked) [Example 134], the melting point worked out at 93 °C. Moreover, the IC50 on human BACE1 lay within 110 to 1000 nM.

`CCn1cc(C2(c3cccc(-c4cccnc4F)c3)N=C(N)N(C)C2=O)cc1C(=O)NC1CCCC1` (centres unmarked) [Example 162] showed a melting point of 127 to 128 °C. Besides, on human BACE1, the IC50 lay in the range of 110 to 1000 nM.

As to `CCn1cc(C2(c3ccc(F)c(-c4cccnc4F)c3)N=C(N)N(C)C2=O)cc1S(C)(=O)=O` (centres unmarked) [Example 188, 2-Amino-5-[1-ethyl-5-(methylsulfonyl)-1H-pyrrol-3-yl]-5-[4-fluoro-3-(2-fluoropyridin-3-yl)phenyl]-3-methyl-3,5-dihydro-4H-imidazol-4-one], the melting point was 193 to 195 °C. Besides, the IC50 on human BACE1 lay within 10 to 100 nM.

For `CC(C)CCOc1cccc(C2(c3ccsc3)N=C(N)N(C)C2=O)c1` (centres unmarked) [Example 144], the melting point was in the range of 84 to 88 °C. This molecule also displayed an IC50 on human BACE1 of 110 to 1000 nM.

`CCC(=O)c1cc(C2(c3cccc(-c4cccnc4F)c3)N=C(N)N(C)C2=O)cn1C` (centres unmarked) [Example 180]: the melting point was 107 to 111 °C. Besides, at human BACE1, the IC50 is 10 to 100 nM.

As for `CC(C)Cn1cc(C2(c3cccc(-c4cccnc4F)c3)N=C(N)N(C)C2=O)cn1` (centres unmarked) [Example 3, 2-Amino-5-[3-(2-fluoropyridin-3-yl)phenyl]-5-(1-isobutyl-1H-pyrazol-4-yl)-3-methyl-3,5-dihydro-4H-imidazol-4-one], the melting point lay in the range of 94 to 98 °C. Moreover, the IC50 at human BACE1 lay within 10 to 100 nM.

As to `CCn1cc(C2(c3cccc(-c4cccnc4F)c3)N=C(N)N(C)C2=O)cc1C(=O)N(C)C` (centres unmarked) [Example 165], the melting point was more than 200 °C. Besides, the IC50 on human BACE1 lay in the range of 110 to 1000 nM.

As to `CCn1cc(C2(c3cccc(-c4cccnc4F)c3)N=C(N)N(C)C2=O)cc1C(=O)c1ccccc1` (centres unmarked) [Example 170], the melting point lay in the range of 104 to 106 °C. Besides, the IC50 at human BACE1 was 10 to 100 nM.

`COC(=O)c1cc(C2(c3cccc(-c4cccc(OC)c4)c3)N=C(N)N(C)C2=O)cn1CCF` (centres unmarked) [Example 196] showed a melting point of 121 to 124 °C. The same molecule displayed an IC50 on human BACE1 of 10 to 100 nM.
